As a reminder, the EC50 is the concentration that produces a half-maximal response.

The test system of the first assay is HCV 1b-377-neo replicon cells. Kind of assay: HCV replicon assay, HCV 1b-377-neo replicon cells (1b FRET). Particulars: HCV 1b-377-neo replicon cells; HCV 1b genotype; read-out: EC50 range against HCV 1b (Table 2, Range). It is filed as cell-based, Hepatitis C virus genotype 1b. The method in brief:
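Compounds were tested in genotype 1b subgenomic replicon cells carrying a neomycin marker, alongside a matched replicon line with an NS5A Y2065H substitution that confers resistance to a reference NS5A inhibitor.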
For orientation: Replicon systems follow genome replication, usually without infectious particles.
`CCN(CC)[C@@H](C(=O)N1CCC[C@H]1c1ncc(-c2ccc(-c3ccc(-c4cnc([C@@H]5CCCN5C(=O)[C@@H](NC(=O)OC)C(C)C)[nH]4)cc3)cc2)[nH]1)C(C)(C)C` [Example M91x]: the concentration for a half-maximal effect (EC50) was in the range of 0.001 to 0.099 µM.
Same read-out and setting: the same measure for `COC(=O)N[C@@H](CC(N)=O)C(=O)N1CCC[C@H]1c1ncc(-c2ccc(-c3ccc(-c4cnc([C@@H]5CCCN5C(=O)[C@@H](NC(=O)OC)C(C)C)[nH]4)cc3)cc2)[nH]1` [Example M91y, methyl ((1S)-3-amino-1-(((2S)-2-(5-(4′-(2-((2S)-1-((2S)-2-((methoxycarbonyl)amino)-3-methylbutanoyl)-2-pyrrolidinyl)-1H-imidazol-5-yl)-4-biphenylyl)-1H-imidazol-2-yl)-1-pyrrolidinyl)carbonyl)-3-oxopropyl)carbamate (non-preferred name)]: 0.1 to 0.999 µM.
On the same count and under the same terms, the same measure for `CCC[C@H](NC(=O)OC)C(=O)N1CCC[C@H]1c1ncc(-c2ccc(-c3ccc(-c4cnc([C@@H]5CCCN5C(=O)[C@H](C)NC(=O)OC)[nH]4)cc3)cc2)[nH]1` [Example M94, methyl ((1S)-1-(((2S)-2-(5-(4′-(2-((2S)-1-((2S)-2-((methoxycarbonyl)amino)propanoyl)-2-pyrrolidinyl)-1H-imidazol-5-yl)-4-biphenylyl)-1H-imidazol-2-yl)-1-pyrrolidinyl)carbonyl)butyl) carbamate]: 0.001 to 0.099 µM.

The assay is the same for the next values; noted with them: Hepatitis C virus, HCV 1b-377-neo replicon cells; HCV 1b genotype; read-out: EC50 range against HCV 1b (Table 2, Range).
Consider `CCCN(CCC)[C@@H](C)C(=O)N1CCC[C@H]1c1ncc(-c2ccc(-c3ccc(-c4cnc([C@@H]5CCCN5C(=O)[C@@H](NC(=O)OC)C(C)C)[nH]4)cc3)cc2)[nH]1` [Example M84, methyl ((1S)-1-(((2S)-2-(5-(4′-(2-((2S)-1-(N,N-dipropyl-L-alanyl)-2-pyrrolidinyl)-1H-imidazol-5-yl)-4-biphenylyl)-1H-imidazol-2-yl)-1-pyrrolidinyl)carbonyl)-2-methylpropyl)carbamate], for which the concentration for a half-maximal effect (EC50) is 0.001 to 0.099 µM.
Regarding `CC[C@H](C(=O)N1CCC[C@H]1c1ncc(-c2ccc(-c3ccc(-c4cnc([C@@H]5CCCN5C(=O)[C@@H](NC(=O)OC)C(C)C)[nH]4)cc3)cc2)[nH]1)N(CC)CC` [Example M85, methyl ((1S)-1-(((2S)-2-(5-(4′-(2-((2S)-1-((2R)-2-(diethylamino)butanoyl)-2-pyrrolidinyl)-1H-imidazol-5-yl)-4-biphenylyl)-1H-imidazol-2-yl)-1-pyrrolidinyl)carbonyl)-2-methylpropyl)carbamate], the EC50 is 0.001 to 0.099 µM.
Still for that read-out and setting: the same measure for `CC[C@@H](C(=O)N1CCC[C@H]1c1ncc(-c2ccc(-c3ccc(-c4cnc([C@@H]5CCCN5C(=O)[C@@H](NC(=O)OC)C(C)C)[nH]4)cc3)cc2)[nH]1)N(CC)CC` [Example M86, methyl ((1S)-1-(((2S)-2-(5-(4′-(2-((2S)-1-((2S)-2-(diethylamino)butanoyl)-2-pyrrolidinyl)-1H-imidazol-5-yl)-4-biphenylyl)-1H-imidazol-2-yl)-1-pyrrolidinyl)carbonyl)-2-methylpropyl)carbamate]: 0.001 to 0.099 µM.
Same read-out and setting: the same measure for `COC(=O)N[C@H](C(=O)N1CCC[C@H]1c1ncc(-c2ccc(-c3ccc(-c4cnc([C@@H]5CCCN5C(=O)c5c[nH]cn5)[nH]4)cc3)cc2)[nH]1)C(C)C` [Example M87, methyl ((1S)-1-(((2S)-2-(5-(4′-(2-((2S)-1-(1H-imidazol-4-ylcarbonyl)-2-pyrrolidinyl)-1H-imidazol-5-yl)-4-biphenylyl)-1H-imidazol-2-yl)-1-pyrrolidinyl)carbonyl)-2-methylpropyl)carbamate]: 0.001 to 0.099 µM; for `CCN(CC)[C@@H](COC)C(=O)N1CCC[C@H]1c1ncc(-c2ccc(-c3ccc(-c4cnc([C@@H]5CCCN5C(=O)[C@@H](NC(=O)OC)C(C)C)[nH]4)cc3)cc2)[nH]1` [Example M88, methyl ((1S)-1-(((2S)-2-(5-(4′-(2-((2S)-1-(N,N-diethyl-O-methyl-L-seryl)-2-pyrrolidinyl)-1H-imidazol-5-yl)-4-biphenylyl)-1H-imidazol-2-yl)-1-pyrrolidinyl)carbonyl)-2-methylpropyl)carbamate]: 0.001 to 0.099 µM.
On the same count and under the same terms, the same measure for `CCN(CC)[C@H](CC(N)=O)C(=O)N1CCC[C@H]1c1ncc(-c2ccc(-c3ccc(-c4cnc([C@@H]5CCCN5C(=O)[C@@H](NC(=O)OC)C(C)C)[nH]4)cc3)cc2)[nH]1` [Example M89, methyl ((1S)-1-(((2S)-2-(5-(4′-(2-((2S)-1-(N^2,N^2-diethyl-D-asparaginyl)-2-pyrrolidinyl)-1H-imidazol-5-yl)-4-biphenylyl)-1H-imidazol-2-yl)-1-pyrrolidinyl)carbonyl)-2-methylpropyl)carbamate]: 0.001 to 0.099 µM; for `COC(=O)N[C@H](C(=O)N1CCC[C@H]1c1ncc(-c2ccc(-c3ccc(-c4cnc([C@H]5CCCN5C(=O)[C@H](NC(=O)OC)C(C)C)[nH]4)cc3)cc2)[nH]1)C(C)C` [Example M90, methyl ((1S)-1-(((2S)-2-(5-(4′-(2-((2R)-1-((2R)-2-((methoxycarbonyl)amino)-3-methylbutanoyl)-2-pyrrolidinyl)-1H-imidazol-5-yl)-4-biphenylyl)-1H-imidazol-2-yl)-1-pyrrolidinyl)carbonyl)-2-methylpropyl)carbamate]: 1 to 10 µM; for `CCN(CC)[C@H](COC)C(=O)N1CCC[C@H]1c1ncc(-c2ccc(-c3ccc(-c4cnc([C@@H]5CCCN5C(=O)[C@@H](NC(=O)OC)C(C)C)[nH]4)cc3)cc2)[nH]1` [Example M91, methyl ((1S)-1-(((2S)-2-(5-(4′-(2-((2S)-1-(N,N-diethyl-O-methyl-D-seryl)-2-pyrrolidinyl)-1H-imidazol-5-yl)-4-biphenylyl)-1H-imidazol-2-yl)-1-pyrrolidinyl)carbonyl)-2-methylpropyl)carbamate]: 0.001 to 0.099 µM.
`COC(=O)N[C@@H](C)C(=O)N1CCC[C@H]1c1ncc(-c2ccc(-c3ccc(-c4cnc([C@@H]5CCCN5C(=O)c5ncco5)[nH]4)cc3)cc2)[nH]1` [Example M92, methyl ((1S)-1-methyl-2-((S)-2-(5-(4′-(2-((2S)-1-(1,3-oxazol-2-ylcarbonyl)-2-pyrrolidinyl)-1H-imidazol-5-yl)-4-biphenylyl)-1H-imidazol-2-yl)-1-pyrrolidinyl)-2-oxoethyl)carbamate]: the 50% effective concentration (EC50) lay in the range of 1 to 10 µM.
With `COC(=O)N[C@@H](C)C(=O)N1CCC[C@H]1c1ncc(-c2ccc(-c3ccc(-c4cnc([C@@H]5CCCN5C(=O)[C@@H](NC(=O)OC)C5CC5)[nH]4)cc3)cc2)[nH]1` [Example M93, methyl ((1S)-1-cyclopropyl-2-((2S)-2-(5-(4′-(2-((2S)-1-(N-(methoxycarbonyl)-L-alanyl)-2-pyrrolidinyl)-1H-imidazol-5-yl)-4-biphenylyl)-1H-imidazol-2-yl)-1-pyrrolidinyl)-2-oxoethyl)carbamate], the EC50 fell in the range of 0.001 to 0.099 µM.
On the same count and under the same terms, the same measure for `COC(=O)N[C@@H](C)C(=O)N1CCC[C@H]1c1ncc(-c2ccc(-c3ccc(-c4cnc([C@@H]5CCCN5C(=O)[C@@H](NC(=O)OC)C(C)(C)C)[nH]4)cc3)cc2)[nH]1` [Example M95, methyl ((1S)-1-(((2S)-2-(5-(4′-(2-((2S)-1-(N-(methoxycarbonyl)-L-alanyl)-2-pyrrolidinyl)-1H-imidazol-5-yl)-4-biphenylyl)-1H-imidazol-2-yl)-1-pyrrolidinyl)carbonyl)-2,2-dimethylpropyl)carbamate]: 0.001 to 0.099 µM; for `CCN(CC)[C@H](C)C(=O)N1CCC[C@H]1c1ncc(-c2ccc(-c3ccc(-c4cnc([C@@H]5CCCN5C(=O)[C@H](C)NC(=O)OC)[nH]4)cc3)cc2)[nH]1` [Example M96, methyl ((1S)-2-((2S)-2-(5-(4′-(2-((2S)-1-(N,N-diethyl-D-alanyl)-2-pyrrolidinyl)-1H-imidazol-5-yl)-4-biphenylyl)-1H-imidazol-2-yl)-1-pyrrolidinyl)-1-methyl-2-oxoethyl)carbamate]: 0.1 to 0.999 µM; for `COC(=O)N[C@@H](C)C(=O)N1CCC[C@H]1c1ncc(-c2ccc(-c3ccc(-c4cnc([C@@H]5CCCN5C(=O)C(c5ccccc5)N5C6CCC5CC6)[nH]4)cc3)cc2)[nH]1` (stereo partly drawn) [Example M97, methyl ((1S)-2-((2S)-2-(5-(4′-(2-((2S)-1-(7-azabicyclo[2.2.1]hept-7-yl(phenyl)acetyl)-2-pyrrolidinyl)-1H-imidazol-5-yl)-4-biphenylyl)-1H-imidazol-2-yl)-1-pyrrolidinyl)-1-methyl-2-oxoethyl)carbamate]: 0.001 to 0.099 µM.
On the same count and under the same terms, the same measure for `COC(=O)N[C@@H](C)C(=O)N1CCC[C@H]1c1ncc(-c2ccc(-c3ccc(-c4cnc([C@@H]5CCCN5C(=O)[C@H](O)c5ccccc5)[nH]4)cc3)cc2)[nH]1` [Example M98, methyl ((1S)-2-((2S)-2-(5-(4′-(2-((2S)-1-((2R)-2-hydroxy-2-phenylacetyl)-2-pyrrolidinyl)-1H-imidazol-5-yl)-4-biphenylyl)-1H-imidazol-2-yl)-1-pyrrolidinyl)-1-methyl-2-oxoethyl)carbamate]: 0.001 to 0.099 µM.
The same measure, in the same setting: in the case of `CCN(C)[C@@H](C(=O)N1CCC[C@H]1c1ncc(-c2ccc(-c3ccc(-c4cnc([C@@H]5CCCN5C(=O)[C@H](C)NC(=O)OC)[nH]4)cc3)cc2)[nH]1)c1ccccc1` [Example M99, methyl ((1S)-2-((2S)-2-(5-(4′-(2-((2S)-1-((2R)-2-(ethyl(methyl)amino)-2-phenylacetyl)-2-pyrrolidinyl)-1H-imidazol-5-yl)-4-biphenylyl)-1H-imidazol-2-yl)-1-pyrrolidinyl)-1-methyl-2-oxoethyl)carbamate] it was 0.001 to 0.099 µM; in that of `COC[C@H](NC(=O)OC)C(=O)N1CCC[C@H]1c1ncc(-c2ccc(-c3ccc(-c4cnc([C@@H]5CCCN5C(=O)[C@H](C)NC(=O)OC)[nH]4)cc3)cc2)[nH]1` [Example M100, methyl ((1S)-2-((2S)-2-(5-(4′-(2-((2S)-1-(N-(methoxycarbonyl)-L-alanyl)-2-pyrrolidinyl)-1H-imidazol-5-yl)-4-biphenylyl)-1H-imidazol-2-yl)-1-pyrrolidinyl)-1-(methoxymethyl)-2-oxoethyl)carbamate], 0.001 to 0.099 µM.

The record behind these values is patent US8574563B2 (Bristol-Myers Squibb Company, priority 2006, dated 2013).
